Results as given in PMC8986850, “Development and exploration of novel substituted thiosemicarbazones as inhibitors of aldose reductase via in vitro analysis and computational study” (Scientific Reports, 2022).

How the values were obtained:
[1] = DPPH radical scavenging activity; details: 100 µM compound, methanolic DPPH 0.025 mg/mL, 517 nm
Experimental: DPPH (2,2-diphenyl-1-picrylhydrazyl) was used to explore the free radical quenching ability of 3a-o so as to provide a gauge of their antioxidant potential. The experiment was conducted according to a previously reported protocol with slight modifications. Percent free radical scavenging activities (% FRSA) of 3a-o were determined by spectrophotometric analysis at 517 nm using a homogenous mixture of methanolic DPPH (0.025 mg/mL) and a 100 µM solution of the tested compound, with ascorbic acid used as a positive control (Fig. 3).

human AKR1B1 (hAKR1B1) = biological target: T1, human AKR1B1 (hAKR1B1) (Homo sapiens, UniProt P15121); test: Inhibition of expressed human AKR1B1 (E. coli BL21 (DE3)); format: biochemical; details: for inhibition at 100 µM: human AKR1B1 expressed in E. coli, 100 µM inhibitor, read-out: I (%, 100 µM) (AKR1B1); for IC50: human AKR1B1 expressed in E. coli BL21 (DE3), mean ± SEM of three measurements
T1 construct: made in house; host or cells: E. coli BL21 (DE3)
Experimental: For the enzyme inhibition assay, ALR2 and ALR1 were extracted from bovine sources (ALR2 from eyes and ALR1 from kidneys). Moreover, inhibitions studies were also carried out on the expressed ALR2 (human AKR1B1) and inhibition data for ALR2- bovine source and expressed enzyme was compared and analyzed. The protocols for enzyme extraction and expression in the bacterial system are included in the section of “Supporting information”. […] For the purpose of comparison and validation of enzyme inhibition data, these compounds were tested against human AKR1B1 (hAKR1B1) expressed in E. coli BL21 (DE3).
For the determination of enzyme activity of ALR1 and ALR2, 100 µL of reaction mixture was composed of 20 µL of buffer (100 mM sodium phosphate, pH 6.2), 30 µL of enzyme extract, 20 µL of substrate (10 mM), 20 µL of cofactor (0.1 mM of NADPH) and 10 µL of test compound (1 mM)[6],[21]. […] Similar protocols were followed for ALR1 and ALR2, however the substrate was different for each enzyme, with sodium-D-glucoronate and DL-glyceraldehyde used as the substrates for the ALR1 and ALR2 assays, respectively. […] In addition, similar protocols were adopted for human AKR1B1 that was expressed in E. coli BL21 (DE3), though the determined protein concentration was 12 µg/mL for the expressed enzyme. Detailed protocols for the preparation of ALR1, ALR2 and expressed human AKR1B1 can be found in the supporting information.
(§1) The newly synthesized N-substitute thiosemicarbazones (3a-o) were dissolved in 100% DMSO and diluted with deionized water, keeping the DMSO concentration equal to 0.1% in the assay.
The expression plasmid for aldose reductase (pDONR223_AKR1B1_WT) was gift from Addgene in stable culture. Streaking of this culture has been carried out on LB Agar plate then incubated overnight, after growth of colonies , inoculation was performed in LB medium then incubated this medium in shaking incubator at 37 °C. After 48 hours turbidity was measured when OD=0.6 then some of bacterial growth was prepared as 50% glycerol stock. Others are subjected to plasmid isolation following method Miniprep. Meanwhile E. Coli BL21 De3 cells were made competent then transformation with extracted plasmid (AKR1B1) had been carried out heat shock method. Transformed cell ( E.Coli BL21 DE3+AKR1B1) were grown in 37 °C in shaking incubator for 48 hr. The selection for transformed cells was carried out with the help of antibiotic (spectinomycin 50µg/ml). […] For the expression of aldose reductase , E.coli BL21DE3 were induced with of IPTG(Isopropyl-d-thiogalactopyranoside)[3]. […] The expressed enzyme was stabilized by addition 10 mM Tris–HCl buffer, 0.5 mM EDTA, 5 mM β-marcaptoethanol at pH 8.0 and 20% (v/v) glycerol. Cells were lysed with lysis buffer and then precipitation with ammonium sulfate up to 80% saturation was done . the expressed enzyme was dialyzed overnight against tris buffer. Protein quantification was performed following Bradford protein assay. Aliqoutes were stored at -80 refrigerator.

ALR2 = biological target: T2, ALR2 (Bos taurus, UniProt P16116); test: ALR2 enzyme inhibition assay (enzyme extracted from calf lenses); format: biochemical, bovine; details: for IC50: bovine lens ALR2, substrate DL-glyceraldehyde, mean ± SEM of three measurements; for inhibition at 100 µM: bovine lens ALR2, 100 µM inhibitor, read-out: I (%, 100 µM) (ALR2) (converted)
T2 construct: from tissue; host or cells: calf eye lenses
Experimental: Compounds 3a-o were tested against ALR2 to evaluate their inhibitory potential against aldose reductase whereas selectivity was determined via performing ALR1 inhibition assay. For the enzyme inhibition assay, ALR2 and ALR1 were extracted from bovine sources (ALR2 from eyes and ALR1 from kidneys). Moreover, inhibitions studies were also carried out on the expressed ALR2 (human AKR1B1) and inhibition data for ALR2- bovine source and expressed enzyme was compared and analyzed. The protocols for enzyme extraction and expression in the bacterial system are included in the section of “Supporting information”. […] For the purpose of comparison and validation of enzyme inhibition data, these compounds were tested against human AKR1B1 (hAKR1B1) expressed in E. coli BL21 (DE3).
For the determination of enzyme activity of ALR1 and ALR2, 100 µL of reaction mixture was composed of 20 µL of buffer (100 mM sodium phosphate, pH 6.2), 30 µL of enzyme extract, 20 µL of substrate (10 mM), 20 µL of cofactor (0.1 mM of NADPH) and 10 µL of test compound (1 mM)[6],[21]. The reaction mixture without cofactor was incubated at 32°C for 10 min, then the enzymatic reaction was initiated with the addition of NADPH and monitored for 5 minutes. Similar protocols were followed for ALR1 and ALR2, however the substrate was different for each enzyme, with sodium-D-glucoronate and DL-glyceraldehyde used as the substrates for the ALR1 and ALR2 assays, respectively. […] In addition, similar protocols were adopted for human AKR1B1 that was expressed in E. coli BL21 (DE3), though the determined protein concentration was 12 µg/mL for the expressed enzyme. Detailed protocols for the preparation of ALR1, ALR2 and expressed human AKR1B1 can be found in the supporting information.
as §1
The extraction of ALR2 was carried out from calf lenses via adopting method described in
in (Hayman and Kinoshita 1965) with little modification. The lenses were obtained from slaughterhouse immediately after calf’s slaughtering and stored at -20^◦C until further use. These lense (150-170g) were subjected to homogenization with about three times volume of cold distilled water and then centrifugation was carried out for the homogenate at 10,000 x g for 14 minutes for removal of insoluble lipids particles. Precipitates were discarded and supernatant layer was subjected to 40% saturation of ammonium sulphate and again centrifugation was performed with same parameters for 14 minutes and again precipitates were discarded. […] In the last step, the supernatant was subjected to 75% of saturation with ammonium sulphate to obtain ALR2. Now, the precipitates were collected instead supernatant because precipitated protein was the expected desired ALR2. The precipitated enzyme (ALR2) was redissolved in 50mM solution of sodium chloride and dialyzed for 24 hours against 50mM solution (3.5L) of NaCl. The volume was recorded before and after dialysis, then dialyzed material was treated with liquid nitrogen. The extracted ALR2 was stored in 1mL Eppendorf tube in deep freezer at -80 ^◦C till further enzymatic studies.

Compound | % FRSA (percent free radical scavenging activity) [1] | melting point | inhibition at 100 µM (human AKR1B1 (hAKR1B1)) | IC50 (ALR2) | IC50 (human AKR1B1 (hAKR1B1)) | inhibition at 100 µM (ALR2)
O=C1O[C@H]([C@@H](O)CO)C(O)=C1O [Ascorbic acid, reference compound] | 89.88% |  |  |  |  | 
Cc1ccccc1NC(=S)NN=Cc1cc(C(C)(C)C)cc(C(C)(C)C)c1O [Compound 3d, 2-(3,5-di-tert-butyl-2-hydroxybenzylidene)-N-(o-tolyl)hydrazinecarbothioamide] | 84.58% | 182 to 184 °C | 3.56% |  |  | 
CC(C)(C)c1cc(C=NNC(=S)NCc2ccccc2)c(O)c(C(C)(C)C)c1 [Compound 3e, N-benzyl-2-(3,5-di-tert-butyl-2-hydroxybenzylidene)hydrazinecarbothioamide] | 83.20% | 190 to 192 °C | 12.3% |  |  | 
CC(C)(C)c1cc(C=NNC(=S)Nc2ccc(F)cc2)c(O)c(C(C)(C)C)c1 [Compound 3g, 2-(3,5-di-tert-butyl-2-hydroxybenzylidene)-N-(4-fluorophenyl)hydrazine carbothioamide] | 85.89% | 176 to 178 °C |  | 2380 ± 2.8 nM | 3950 ± 3.8 nM | 
CC(C)(C)c1cc(C=NNC(=S)NC2CCCCC2)c(O)c(C(C)(C)C)c1 [Compound 3h, N-cyclohexyl-2-(3,5-di-tert-butyl-2-hydroxybenzylidene)hydrazinecarbothioamide] | 83.54% | 168 to 170 °C | 38% |  |  | ≤ 39.1%
CC(C)(C)c1cc(C=NNC(=S)Nc2ccc(Br)cc2)c(O)c(C(C)(C)C)c1 [Compound 3i, N-(4-bromophenyl)-2-(3,5-di-tert-butyl-2-hydroxybenzylidene)hydrazine carbothioamide] | 81.80% | 184 to 186 °C | 22.3% |  |  | ≤ 39.1%
CC(C)(C)c1cc(C=NNC(=S)Nc2ccc(Cl)cc2)c(O)c(C(C)(C)C)c1 [Compound 3l, N-(4-chlorophenyl)-2-(3,5-di-tert-butyl-2-hydroxybenzylidene)hydrazine carbothioamide] | 61.55% | 188 to 190 °C |  | 1460 ± 5 nM | 1650 ± 4 nM | 81.5%
CC(C)c1ccc(NC(=S)NN=Cc2cc(C(C)(C)C)cc(C(C)(C)C)c2O)cc1 [Compound 3n, 2-(3,5-di-tert-butyl-2-hydroxybenzylidene)-N-(4-isopropylphenyl)hydrazine carbothioamide] | 7.91% | 189 to 191 °C | 22.6% |  |  | ≤ 39.1%
